Reference: BindingDB's records for PubMed 33486199 (Queen Mary University of London, 2021)

Biological target: T1, fMet-Leu-Phe receptor (Homo sapiens, UniProt P21462)
T1 sequence (P21462 whole entry): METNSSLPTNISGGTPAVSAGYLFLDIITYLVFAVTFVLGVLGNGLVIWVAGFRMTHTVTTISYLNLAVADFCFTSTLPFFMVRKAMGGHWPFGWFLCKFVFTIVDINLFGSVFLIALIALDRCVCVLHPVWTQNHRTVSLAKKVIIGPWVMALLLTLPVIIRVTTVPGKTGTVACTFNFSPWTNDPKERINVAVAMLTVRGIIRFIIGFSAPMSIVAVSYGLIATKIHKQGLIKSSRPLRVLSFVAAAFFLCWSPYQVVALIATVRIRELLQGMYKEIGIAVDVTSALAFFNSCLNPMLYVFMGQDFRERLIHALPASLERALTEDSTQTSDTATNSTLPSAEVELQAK
Assay: Agonist activity at human FPR1 expressed in CHO cells assessed as cAMP level incubated for 1.5 hr by HTRF assay

EC50 | Compound
> 10 µM | O=C(Nc1ccc(Cl)cc1F)N[C@@H]1CCN(c2ccc(-c3cnn(C(F)F)c3)c(F)c2F)C1=O [US10676431, Example 79]
> 10 µM | CP(C)(=O)c1ccccc1-c1ccc(N2CC(CO)[C@@H](NC(=O)Nc3ccc(Cl)cc3F)C2=O)c(F)c1F (some centres not stated) [US10676431, Example 125]
